≈ marks a conversion by molar mass, not a printed value.
How the values were obtained:
[1] = (§1) Cytotoxicity against human TZM-bl cells assessed as reduction in cell viability by CellTiter-Glo 2.0 assay; assay type: toxicity, cell-based; details: TZM-bl cells
[2] = Aqueous solubility of the compound in PBS at pH 7.4 at 25 degC; assay type: physicochemical
TZM [3] = assay: Cytotoxicity against human TZM-bl cells assessed as reduction in cell viability at <100 uM by CellTiter-Glo 2.0 assay; assay type: toxicity, cell-based
TZM [4] = assay: as §1; assay type: toxicity, cell-based; details: tzm

Question: For `N=C(N)NCCCCC(=O)NCCN1CCC(NC(=O)C(=O)Nc2cncc(Cl)c2)CC12CCCCC2.O=C(O)C(F)(F)F.O=C(O)C(F)(F)F.O=C(O)C(F)(F)F` (configuration not stated), which CC50 [1] is on record?
Answer: Its CC50 is 279 µM.

Question: What about the solubility [2] of the same molecule?
Answer: Its solubility is over 50 mM.

Question: What about the Activity (TZM [3]) of the same molecule?
Answer: Its Activity is “Non-Toxic”.

Question: Which CC50 (TZM [4]) does the source give for `N=C(N)NCCCCC(=O)NCCN1CCC(NC(=O)C(=O)Nc2ccc(Cl)cc2)CC12CCCCC2` (configuration not stated) here?
Answer: Its CC50 is over 100 µM.

Question: What about the solubility [2] of the same molecule?
Answer: Its solubility is 0.47 mM (≈ 251 µg/mL).

Question: What about the Activity (TZM [3]) of the same molecule?
Answer: Its Activity is “Non-Toxic”.

Question: Which results are given for `N=C(N)NCCCCC(=O)NCCN1CCC(NC(=O)CNc2ccc(Cl)cn2)CC1.O=C(O)C(F)(F)F.O=C(O)C(F)(F)F.O=C(O)C(F)(F)F`?
Answer: CC50 [1]: > 300 µM; solubility [2]: > 50 mM; Activity (TZM [3]): Non-Toxic

Question: Which CC50 [1] does the source give for `CC1(C)CC(NC(=O)C(=O)Nc2ccc(Cl)cc2)CC(C)(C)N1` here?
Answer: Its CC50 is 177 µM.

Question: For `N=C(N)NCCCCC(=O)NCCN1CCC(NC(=O)C(=O)Nc2ccc(Cl)cc2)CC12CCCCC2.O=C(O)C(F)(F)F.O=C(O)C(F)(F)F` (configuration not stated), which CC50 (TZM [4]) is on record?
Answer: The CC50 was 201 µM.

Question: What about the solubility [2] of the same molecule?
Answer: The solubility was over 16.4 mM.

Question: And the Activity (TZM [3])?
Answer: Its Activity is “Non-Toxic”.

Question: For `COCCOCCOCCOCCOCCOCCOCCOCCOCCOCCOCCOCCNC(=O)CCC(=O)N[C@@H](CCCNC(=N)N)C(=O)NCCN1CCC(NC(=O)C(=O)Nc2ccc(Cl)cc2)CC12CCCCC2.O=C(O)C(F)(F)F.O=C(O)C(F)(F)F` (some centres not stated), which CC50 [1] is on record?
Answer: The CC50 was over 300 µM.

Question: And the solubility [2]?
Answer: The solubility was over 13 mM.

Question: And the Activity (TZM [3])?
Answer: Its Activity is “Non-Toxic”.

Question: Which results are given for `COCCOCCOCCOCCOCCOCCOCCOCCOCCOCCOCCOCCNC(=O)CCC(=O)N[C@@H](CCCNC(=N)N)C(=O)NCCN1CCC(NC(=O)C(=O)Nc2ccc(F)nc2)CC12CCCCC2.O=C(O)C(F)(F)F.O=C(O)C(F)(F)F.O=C(O)C(F)(F)F` (some centres not stated)?
Answer: CC50 [1]: > 100 µM; Activity (TZM [3]): Non-Toxic

Question: What does the source list for `N=C(N)NCCCCC(=O)NCCN1CCC(NC(=O)C(=O)Nc2cncc(F)c2)CC12CCCCC2.O=C(O)C(F)(F)F.O=C(O)C(F)(F)F.O=C(O)C(F)(F)F` (configuration not stated)?
Answer: CC50 [1]: > 300 µM; solubility [2]: > 50 mM; Activity (TZM [3]): Non-Toxic

Question: Which results are given for `N=C(N)NCCCCC(=O)NCCN1CCC(NC(=O)C(=O)Nc2ccc(F)nc2)CC12CCCCC2.O=C(O)C(F)(F)F.O=C(O)C(F)(F)F.O=C(O)C(F)(F)F` (configuration not stated)?
Answer: CC50 [1]: > 100 µM; Activity (TZM [3]): Non-Toxic

Question: Which CC50 [1] does the source give for `CC1(C)CC(NC(=O)C(=O)Nc2ccc(F)nc2)CC(C)(C)N1` here?
Answer: Its CC50 is over 300 µM.

Question: With `N=C(N)NCCCCC(=O)NCCN1CCC(NC(=O)C(=O)Nc2ccc(Cl)cn2)CC1.O=C(O)C(F)(F)F.O=C(O)C(F)(F)F.O=C(O)C(F)(F)F` as the molecule, how does the CC50 [1] read?
Answer: Its CC50 is over 300 µM.

Question: What about the solubility [2] of the same molecule?
Answer: The solubility was over 50 mM.

Question: What about the Activity (TZM [3]) of the same molecule?
Answer: Its Activity is “Non-Toxic”.

— ChEMBL document CHEMBL5131454, “Exploratory studies on soluble small molecule CD4 mimics as HIV entry inhibitors” (Bioorg Med Chem, 2022)
